Laboratory results published in publication PMC9415638, “Discovery of novel thiazolyl-pyrazolines as dual EGFR and VEGFR-2 inhibitors endowed with in vitro antitumor activity towards non-small lung cancer” (Journal of Enzyme Inhibition and Medicinal Chemistry, 2022).

Legend:
A549 cells [1] = assay: Annexin V-FITC/PI apoptosis assay; type: cell-based, human; conditions: A549, 5 μM, 24 h; control 5.4% (10b), […] (10d)
Method: Figure 7. Apoptotic effect of compounds 10b and 10d on A549 cells. (A) Representative cytograms of apoptotic A549 cells stimulated with 0 (control), 2.5 or 5 μM 10b or 10d, for 24 h. The lower-right (annexin V + PI- cells) and the upper-right (annexin V + PI + cells) quadrants show early and late apoptotic cells, and the lower-left (annexin V-PI- cells) and the upper-left ([…]) quadrants represent viable and necrotic cells, respectively. (B) Quantification of annexin V-positive apoptotic cells upon stimulation with 10b or 10d. The values are the means ± SEM of three different experiments. *p < 0.05 and *p < 0.01 indicate significant differences compared with control.
(§1) DNA content was measured using 7-aminoactinmycin D (7AAD) (Biotium, Inc., Hayward, CA) staining and is commonly used for cell cycle phase analysis as previously described. Apoptosis was evaluated using the annexin V/propidium iodide (PI) staining kit (BioLegend, San Diego, CA) according to the manufacturer’s instructions and as previously described.

A549 cells migration = assay: Scratch wound healing assay; type: cell-based, human; conditions: 36 h, vs control
Method: Figure 5. Effect of compounds 10b and 10d on A549 cells migration. […] Representative images of scratched areas in confluent A549 cell layers.
A549 cells were seeded and incubated in 6-well cell culture plates till reaching confluence. Then, the confluent monolayers were scratched to form a “wound” using a sterile needle. The cells were treated with either vehicle as a control, 10b or 10d for 36 h. The images were recorded at 0 and 36 h to monitor the migration of cells into the wounded area using a light photomicroscope.

AKT1 = AKT1 (Homo sapiens, UniProt P31749); assay: Kinase selectivity profiling, Z'-LYTE FRET
EPHB2 = EPHB2 (Homo sapiens, UniProt P29323); assay: Kinase selectivity profiling, Z'-LYTE FRET
CDK5 = CDK5 (Homo sapiens, UniProt Q00535); assay: Kinase selectivity profiling, Z'-LYTE FRET
[2] = test system: NCI-H1975 cells (EGFR L858R/T790M); assay: MTT assay on EGFR-mutated NSCLC cells; type: cell-based; conditions: Homo sapiens, EGFR L858R/T790M double mutation
Method: (§2) All chemicals used in this study were analytical or cell-culture grade.
(§3) Cytotoxicity was measured using the MTT assay. […] The medium was aspirated and 150 μL DMSO was added to solubilise MTT formazan crystals. The plates were then shaken, and the optical density was determined at 570 nm using an ELISA plate reader (Model 550, Bio-Rad, Hercules, CA). At least three independent experiments were performed.

[3] = test system: NCI-H1650 cells (EGFR exon19 deletion delE746-A750); assay: MTT assay on EGFR-mutated NSCLC cells; type: cell-based; conditions: Homo sapiens
Method: as §2, §3

p-EGFR = assay: Western blotting in A549 cells; type: cell-based, human; conditions: Western blot, vs untreated control
From the text: (§4) Figure 3. […] (B) The relative protein expression level of p-EGFR normalised with total EGFR was quantified by the Image J software (C) The relative protein expression level of p-VEGFR-2 normalised with total VEGFR-2. The values are expressed as the mean ± SEM based on three different experiments. ***p < 0.001 indicate a significant difference compared with control.
(§5) The protein extraction and quantification were done as previously described.

p-VEGFR-2 = assay: Western blotting in A549 cells; type: cell-based, human; conditions: Western blot, vs untreated control
From the text: as §4, §5

H441 lung cancer cells = assay: Anti-proliferative MTT assay; conditions: Homo sapiens, NCI-H441, 24 h; for inhibition at 10 µM: read-out: % Growth inhibition ± SEM H441; for IC50: read-out: IC50 (µM) ± SEM H441, MTT, 24 h, n = 3
Method: (§6) The compounds were added at a single concentration (10 µM) and the cultures were incubated for 24 h, then the per cent growth inhibition (%GI) was calculated.

A549 cells [4] = assay: Cell cycle analysis by flow cytometry (7AAD); type: cell-based, human; conditions: A549, 24 h; untreated controls 6.06% and 5.93%
Method: Figure 6. […] (A) Representative cell cycle distribution data are shown by flow cytometric analysis upon incubation with 0 (control), 2.5 or 5 μM of 10b or 10d or with 0 (control), 5 or 20 μM of gefitinib for 24 h. (B) Quantification of cell cycle distribution upon 24 h incubation with 10b or 10d.
as §1

A549 lung cancer cells = assay: Anti-proliferative MTT assay; conditions: Homo sapiens, A549, 24 h; for inhibition at 10 µM: read-out: % Growth inhibition ± SEM A549; for IC50: read-out: IC50 (µM) ± SEM A549
Method: as §6

AKT1, sequence (P31749 whole entry): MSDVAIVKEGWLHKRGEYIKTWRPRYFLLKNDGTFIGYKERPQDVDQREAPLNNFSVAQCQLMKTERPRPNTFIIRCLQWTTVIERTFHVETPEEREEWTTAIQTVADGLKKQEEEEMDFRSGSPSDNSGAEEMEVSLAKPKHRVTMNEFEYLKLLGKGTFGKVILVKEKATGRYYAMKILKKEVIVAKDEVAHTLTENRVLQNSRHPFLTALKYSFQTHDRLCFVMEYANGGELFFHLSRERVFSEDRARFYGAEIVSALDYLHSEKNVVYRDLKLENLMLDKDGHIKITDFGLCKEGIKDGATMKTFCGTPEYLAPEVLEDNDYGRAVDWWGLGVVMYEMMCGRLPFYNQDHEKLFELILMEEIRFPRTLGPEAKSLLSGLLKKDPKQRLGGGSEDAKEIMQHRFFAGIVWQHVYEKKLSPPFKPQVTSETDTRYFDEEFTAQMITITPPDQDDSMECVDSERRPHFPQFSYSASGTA
CDK5, sequence (Q00535 whole entry): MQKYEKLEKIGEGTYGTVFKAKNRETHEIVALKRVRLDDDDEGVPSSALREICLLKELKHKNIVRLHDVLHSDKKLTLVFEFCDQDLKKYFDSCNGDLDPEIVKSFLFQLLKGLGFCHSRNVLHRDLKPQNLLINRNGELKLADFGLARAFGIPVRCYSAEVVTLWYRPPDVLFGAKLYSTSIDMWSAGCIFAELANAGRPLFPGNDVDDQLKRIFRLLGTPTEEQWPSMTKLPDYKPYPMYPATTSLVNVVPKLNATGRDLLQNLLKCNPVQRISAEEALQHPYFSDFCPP
CDK5, sequence (Q15078 whole entry partner): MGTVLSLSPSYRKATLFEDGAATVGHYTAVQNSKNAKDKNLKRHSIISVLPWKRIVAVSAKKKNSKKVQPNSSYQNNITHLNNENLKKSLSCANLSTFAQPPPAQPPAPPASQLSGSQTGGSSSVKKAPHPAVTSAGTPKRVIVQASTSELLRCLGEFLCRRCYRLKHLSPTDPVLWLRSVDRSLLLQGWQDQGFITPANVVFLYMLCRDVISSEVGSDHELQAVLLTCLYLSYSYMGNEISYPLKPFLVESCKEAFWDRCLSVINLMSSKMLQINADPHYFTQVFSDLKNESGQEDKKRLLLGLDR
EPHB2, sequence (P29323 19-1055): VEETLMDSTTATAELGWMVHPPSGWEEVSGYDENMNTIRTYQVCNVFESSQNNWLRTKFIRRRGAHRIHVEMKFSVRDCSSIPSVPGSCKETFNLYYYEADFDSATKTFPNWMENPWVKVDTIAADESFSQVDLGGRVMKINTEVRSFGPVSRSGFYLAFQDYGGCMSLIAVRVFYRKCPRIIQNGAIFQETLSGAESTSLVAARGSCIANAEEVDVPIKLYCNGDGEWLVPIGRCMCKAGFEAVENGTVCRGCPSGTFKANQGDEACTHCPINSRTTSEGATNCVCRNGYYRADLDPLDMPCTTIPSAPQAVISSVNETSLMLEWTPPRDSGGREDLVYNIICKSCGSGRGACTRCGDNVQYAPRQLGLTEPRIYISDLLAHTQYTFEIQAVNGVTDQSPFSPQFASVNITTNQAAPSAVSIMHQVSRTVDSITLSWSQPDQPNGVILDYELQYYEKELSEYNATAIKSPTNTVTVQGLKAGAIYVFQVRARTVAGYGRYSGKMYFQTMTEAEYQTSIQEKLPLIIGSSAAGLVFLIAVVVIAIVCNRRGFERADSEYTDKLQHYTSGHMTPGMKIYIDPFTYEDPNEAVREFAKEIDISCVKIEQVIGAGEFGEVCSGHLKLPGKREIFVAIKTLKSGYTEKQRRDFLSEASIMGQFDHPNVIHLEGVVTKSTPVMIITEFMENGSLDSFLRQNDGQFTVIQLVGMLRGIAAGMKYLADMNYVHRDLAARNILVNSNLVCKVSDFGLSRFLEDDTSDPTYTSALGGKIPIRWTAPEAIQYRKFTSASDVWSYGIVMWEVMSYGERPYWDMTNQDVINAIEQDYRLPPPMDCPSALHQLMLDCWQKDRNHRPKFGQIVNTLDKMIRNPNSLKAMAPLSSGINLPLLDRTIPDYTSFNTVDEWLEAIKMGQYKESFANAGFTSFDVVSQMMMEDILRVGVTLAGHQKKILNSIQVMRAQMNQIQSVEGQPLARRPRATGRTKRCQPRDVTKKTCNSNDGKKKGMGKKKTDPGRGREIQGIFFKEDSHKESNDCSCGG

IC50 (AKT1)	IC50 (EPHB2)	IC50 (CDK5)	IC50 [2]	IC50 [3]	IC50 (H441 lung cancer cells)	IC50 (A549 lung cancer cells)	SMILES	annexin V-positive apoptotic cells (A549 cells [1])	A549 cancer cell migration (A549 cells migration)	protein expression level of p-EGFR (p-EGFR)	protein expression level of p-VEGFR-2 (p-VEGFR-2)	inhibition at 10 µM (H441 lung cancer cells)	cells at G2/M phase (A549 cells [4])	inhibition at 10 µM (A549 lung cancer cells)
0.816 ± 0.038 µM	> 2 µM	1.14 ± 0.02 µM	6.2 ± 0.9 µM	5.7 ± 0.5 µM	4.8 ± 0.1 µM	4.2 ± 0.8 µM	CCOC(=O)c1sc(N2N=C(c3ccc(Cl)cc3Cl)CC2c2ccc(OC)cc2)nc1C (stereo not shown) [Compound 10b, Ethyl-2-(3-(2,4-dichlorophenyl)-5-(4-methoxyphenyl)-4,5-dihydro-1H-pyrazol-1-yl)-4-methylthiazole-5-carboxylate]	16.5%	effective in reducing the cancer cell migration	significantly downregulated	significantly downregulated	79.1 ± 2.6%	29.2%	88.3 ± 4.9%
0.702 ± 0.024 µM	> 2 µM	0.993 ± 0.015 µM	4.4 ± 0.6 µM	3.5 ± 0.2 µM	3.8 ± 0.5 µM	2.9 ± 0.2 µM	COc1ccc(C2CC(c3ccc(Cl)cc3Cl)=NN2c2nc(C)c(C(=O)Nc3ccccc3)s2)cc1OC (stereo not shown) [Compound 10d, 2-(3-(2,4-Dichlorophenyl)-5-(3,4-dimethoxyphenyl)-4,5-dihydro-1H-pyrazol-1-yl)-4-methyl-N-phenylthiazole-5-carboxamide]	28.5%	effective in reducing the cancer cell migration	significantly downregulated	significantly downregulated	89.2 ± 3.9%	33.92%	95.3 ± 5.3%
